Data taken from US20250319047A1, “ANTIMICROBIAL TREATMENT AND PREVENTION BY PERILLYL ALCOHOL AND DERIVATIVES” (priority 2024, published 2025).

What was measured:
[1] = acids formed by oxidation of POH/PCO; cited from earlier work
[2] = in vivo
Description: (§1) The antimicrobial effectiveness of POH diminishes in more dilute solutions. […] However, POH at concentrations equal to and higher than 4% will cause skin irritation and thus are not practical for clinical applications. Therefore, the highest concentration proposed is 3% to maintain a practical clinical range.

all microorganisms = assay: Challenge of antimicrobial effectiveness of POH by concentration; format: cell-based
Description: as §1

[3] = rats, prior systemic studies; cited from earlier work
[4] = humans, dogs, and rats; cited from earlier work

Structure (SMILES) | antimicrobial activity [1] | concentration that will cause skin irritation [2] [%] | antimicrobial effectiveness (all microorganisms; 0.1% concentration) | antimicrobial effectiveness (all microorganisms; over 90% concentrations) | metabolization, detection of parent compound [3] | metabolization [4]
C=C(C)[C@@H]1CC=C(C(=O)O)CC1 [Perillic] | lose the antimicrobial activity |  |  |  |  | 
C=C(C)[C@@H]1CC=C(CO)CC1 [Perillyl alcohol, perillyl alcohol] |  | ≥ 4 | reasonable against all microorganisms | eradicating the microorganisms completely | not detected | rapidly metabolized
C=C(C)C1CCC(C(=O)O)CC1 (stereo not shown) [Dihydroperillic] | lose the antimicrobial activity |  |  |  |  | 
